Ten compounds from ChEMBL document CHEMBL6087415, “Discovery of new fungal jumonji H3K27 demethylase inhibitors for the treatment of Cryptococcus neoformans and Candida auris infections” (Eur J Med Chem, 2025) can be followed below.

Each structure is given as a SMILES string. pIC50: −log10 of the molar value. ≈ marks a conversion by molar mass, not a printed value. Calls of active or inactive are those of the source.

For series [1], the system named is Cryptococcus neoformans. Nature of the series: Antifungal activity against Cryptococcus neoformans H99 assessed as reduction in fungal growth. The format is functional.
In series [2] the test system is [Candida] auris. The series can be described thus: Antifungal activity against Candida auris 0029 assessed as reduction in fungal growth. Type of series: functional. To be noted: Candidozyma auris.
Series [3] has as its system [Candida] auris. Nature of the series: Antifungal activity against Candida auris ATCC 15448 assessed as reduction in fungal growth. Type of series: functional. The conditions noted are these: Candidozyma auris.
The test system of another series is Candida albicans. The series can be described thus: Synergistic antifungal activity against Candida albicans assessed as inhibition of fungal growth incubated in presence of fluconazole. Type of series: functional, organism-based.
For series [4], the system named is [Candida] auris. Nature of the series: Synergistic antifungal activity against Candida auris 0029 assessed as inhibition of fungal growth incubated in presence of fluconazole. To be noted: Candidozyma auris. The format is functional, organism-based.
Series [5] in a line: Solubility of compound in MeOH/H2O at pH 7 by HPLC analysis. The format is physicochemical.
Series [6] is described as follows: Cytotoxicity against HUVEC cells. To be noted: human. Type of series: toxicity, cell-based.
Series [7] is described as follows: Hemolytic activity in rabbit erythrocytes assessed as hemolysis at 10 to 100 uM relative to control. Type of series: toxicity, cell-based, Oryctolagus cuniculus, Erythrocyte. The conditions noted are these: dose 10-100 µM, read-out: Activity.
For series [8], the system named is Cryptococcus neoformans. The series can be described thus: Antifungal activity against Cryptococcus neoformans H99 assessed as inhibition of cell growth at 4 microg/ml measured for 72 hrs. Type of series: functional, organism-based. The conditions noted are these: dose 4.0 µg/ml.
The subject of series [9] is [Candida] auris. The series can be described thus: Antifungal activity against Candida auris 0029 assessed as inhibition of cell growth at 16 microg/ml measured for 72 hrs. Type of series: functional. To be noted: Candidozyma auris.
In series [10] the test system is Cryptococcus neoformans. The series can be described thus: Fungicidal activity against Cryptococcus neoformans H99. Type of series: functional.
Series [11] has as its system [Candida] auris. Nature of the series: Fungicidal activity against Candida auris 0029. The format is functional. To be noted: Candidozyma auris.
In series [12] the test system is Cryptococcus neoformans. The series can be described thus: Antibiofilm activity against Cryptococcus neoformans H99 assessed as inhibition of biofilm formation upto […] microg/ml incubated for 24 hrs by XTT reduction assay. The format is functional, organism-based. The conditions noted are these: dose <= 64.0 µg/ml. (In general: Tetrazolium dyes change colour on reduction, which living cells bring about.)

The test system of series [13] is [Candida] auris. Nature of the series: Antibiofilm activity against Candida auris 0029 assessed as inhibition of biofilm formation upto […] microg/ml incubated for 24 hrs by XTT reduction assay. Type of series: functional, organism-based. To be noted: Candidozyma auris, dose <= 64.0 µg/ml.
Series [14] deals with Cryptococcus neoformans. Nature of the series: Antibiofilm activity against Cryptococcus neoformans H99 assessed as inhibition of biofilm formation at 1 microg/ml incubated for 24 hrs by XTT reduction assay. The format is functional, organism-based. To be noted: dose 1.0 µg/ml.
Series [15] relates to [Candida] auris. Nature of the series: Antibiofilm activity against Candida auris 0029 assessed as inhibition of biofilm formation at 64 microg/ml incubated for 24 hrs by XTT reduction assay. Type of series: functional. To be noted: Candidozyma auris.
Series [16] concerns Cryptococcus neoformans. The series can be described thus: Antibiofilm activity against Cryptococcus neoformans H99 assessed as inhibition of capsule formation at 1 microg/ml incubated for 48 hrs by laser confocal microscopic analysis. Type of series: functional, organism-based. To be noted: dose 1.0 µg/ml.
Series [17] in a line: Inhibition of Cryptococcus neoformans H99 JMJD3 by absorbance based analysis.
Series [18] is described as follows: Inhibition of Candida auris 0029 JMJD3 by absorbance based analysis. Details: species or system Candidozyma auris.
A short description of series [19]: Metabolic stability in mouse liver microsome assessed as half life. The format is ADME. To be noted: liver microsomes. In general terms: Microsomes from liver hold many membrane-bound enzymes, among them those of drug oxidation.
Series [20] in a line: Metabolic stability in mouse liver microsome assessed as clearance. The format is ADME. The conditions noted are these: liver microsomes, read-out: CLH.
Series [21] concerns Cryptococcus neoformans. The series can be described thus: Antifungal activity against Cryptococcus neoformans H99 assessed as reduction in fungal growth incubated for 72 hrs in presence of 1 uM Fe2+. Type of series: functional.
The subject of series [22] is Cryptococcus neoformans. The series can be described thus: Antifungal activity against Cryptococcus neoformans H99 assessed as reduction in fungal growth incubated for 72 hrs in presence of 5 uM Fe2+. Type of series: functional.
The test system of series [23] is Cryptococcus neoformans. The series can be described thus: Antifungal activity against Cryptococcus neoformans H99 assessed as reduction in fungal growth incubated for 72 hrs in presence of 10 uM Fe2+. The format is functional.
Series [24] has as its system Cryptococcus neoformans. The series can be described thus: Antifungal activity against Cryptococcus neoformans H99 assessed as reduction in fungal growth incubated for 72 hrs in presence of 20 uM Fe2+. Type of series: functional.
The subject of series [25] is Cryptococcus neoformans. The series can be described thus: Antifungal activity against Cryptococcus neoformans H99 assessed as reduction in fungal growth incubated for 72 hrs in presence of 40 uM Fe2+. Type of series: functional.
The test system of series [26] is Cryptococcus neoformans. Nature of the series: Antifungal activity against Cryptococcus neoformans H99 assessed as reduction in fungal growth incubated for 72 hrs in presence of 80 uM Fe2+. The format is functional.

For `Cc1ccc(NC(=O)C(c2ccccc2)c2ccccn2)nc1` (centres undefined), the MIC80 (usually an inhibitory concentration at the 80% level, which refers to growth in some studies and to a panel of isolates in others) with Cryptococcus neoformans [1] was 32 µg/mL (≈ 105 µM); in series [Candida] auris [2] it was greater than 64 µg/mL; in series [Candida] auris [3], 64 µg/mL (≈ 211 µM).

For the compound `FC(F)(F)c1ccc(N/N=C(/c2ccccc2)c2ccccn2)cc1`, the MIC80 (in the series with Cryptococcus neoformans [1]; in series [Candida] auris [2]; in series [Candida] auris [3]) was greater than 64 µg/mL in each case.

For the compound `S=c1n(-c2ccccn2)c2ccccc2n1-c1ccc(Cl)cn1`, the MIC80 in the series with Cryptococcus neoformans [1] is 64 µg/mL (≈ 189 µM); in [Candida] auris [2], greater than 64 µg/mL; in [Candida] auris [3], greater than 64 µg/mL.

For the compound `Clc1ccc(N/N=C(\c2ccccc2)c2ccccn2)nc1`, the result (in the series with Candida albicans; in series [Candida] auris [4]; in the series on Cryptococcus neoformans [14]) was inactive. For the same compound, the concentration in solution in series [5] (solubility) was 0.54 µg/mL (≈ 1.75 µM). In addition, the MIC80 came to 0.5 µg/mL (≈ 1.62 µM) in the series on Cryptococcus neoformans [1], 2 µg/mL (≈ 6.48 µM) in series [Candida] auris [2] and 0.125 µg/mL (≈ 0.405 µM) in series [Candida] auris [3]. For the same compound, the pIC50 – broadly, the IC50 on a negative log10 scale, so that one unit is a factor of ten – is 7.10 in series [6], 6.77 in series [17] and 8.30 in series [18]. The hemolysis at 100 µM in series [7] is less than 3%. Moreover, the outcome (in the series with Cryptococcus neoformans [8]; in the series on Cryptococcus neoformans [12]; in series [Candida] auris [13]; with Cryptococcus neoformans [16]) was Active. In series [Candida] auris [9], the inhibition (as a rule, how much of the control response was suppressed) at 16 µg/mL amounted to 100%. The figures for the MFC (in the series with Cryptococcus neoformans [10]; in series [Candida] auris [11]) were 16 µg/mL (≈ 51.8 µM) and 256 µg/mL (≈ 829 µM), respectively. The inhibition at 64 µg/mL in series [Candida] auris [15] worked out at 100%. The half-life (commonly the time needed for the level to fall by half in the phase considered) in series [19] came to 34.3 min. For the same compound, the CLint scaled in series [20] was 159 mL/min/kg. Further, the minimum inhibitory concentration (MIC) (usually the lowest concentration that inhibits growth of the organism) stood at 1 µg/mL with Cryptococcus neoformans [21]; 4 µg/mL in the series on Cryptococcus neoformans [22]; 8 µg/mL in the series on Cryptococcus neoformans [23]; 8 µg/mL in the series with Cryptococcus neoformans [24]; 64 µg/mL in the series on Cryptococcus neoformans [25]; 64 µg/mL in the series on Cryptococcus neoformans [26].

For `Fc1ccc(N/N=C(\c2ccccc2)c2ccccn2)cc1`, the MIC80 is 32 µg/mL (≈ 110 µM) with Cryptococcus neoformans [1], 32 µg/mL (≈ 110 µM) in [Candida] auris [2] and 8 µg/mL (≈ 27.5 µM) in [Candida] auris [3].

For the compound `Clc1cccnc1N/N=C(\c1ccccc1)c1ccccn1`, the MIC80 in the series on Cryptococcus neoformans [1] worked out at 1 µg/mL (≈ 3.24 µM); in series [Candida] auris [2], 4 µg/mL (≈ 13 µM); in series [Candida] auris [3], 0.5 µg/mL (≈ 1.62 µM).

As for `O=c1c2ccccc2c(-c2ccccn2)nn1-c1ccc(Cl)cn1`, the MIC80 was 64 µg/mL (≈ 191 µM) in the series on Cryptococcus neoformans [1], greater than 64 µg/mL in [Candida] auris [2] and greater than 64 µg/mL in [Candida] auris [3].

`Clc1ccc(/C(=N\Nc2ccc(Cl)cn2)c2ccccn2)cc1`: the MIC80 in the series on Cryptococcus neoformans [1] came to 0.5 µg/mL (≈ 1.46 µM); in series [Candida] auris [2], 2 µg/mL (≈ 5.83 µM); in [Candida] auris [3], 1 µg/mL (≈ 2.91 µM).

`Clc1ccc(N/N=C(/c2ccc(Cl)cc2)c2ccccn2)cc1`: the MIC80 with Cryptococcus neoformans [1] was 32 µg/mL (≈ 93.5 µM); in series [Candida] auris [2] it was 64 µg/mL (≈ 187 µM); in series [Candida] auris [3], 64 µg/mL (≈ 187 µM).

As for `FC(F)(F)c1ccc(N/N=C(\c2ccccc2)c2ccccn2)cc1`, the MIC80 with Cryptococcus neoformans [1] is 32 µg/mL (≈ 93.7 µM); in series [Candida] auris [2] it was greater than 64 µg/mL; in series [Candida] auris [3], greater than 64 µg/mL.
